Data as given in ChEMBL document CHEMBL1201862, “PubChem BioAssay data set” (2004).
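Each compound was tested at five concentrations against cells in 96-well plates for 48 hours. GI50 = concentration required for 50% inhibition of growth.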 The source made the active and inactive calls. Cut-off read from the data, not from the text of the source: active = GI50 up to about 1.1 µM and inactive = higher.

Tests used:
Experiment in all cases: growth of human tumour cells (NCI), 48 h
[1] = test system: IGROV-1
[2] = test system: HCT-15
[3] = test system: OVCAR-4
[4] = test system: SF-295
[5] = test system: K562
[6] = test system: SK-OV-3
[7] = test system: DU-145
[8] = test system: SK-MEL-28
[9] = test system: A549
[10] = test system: MOLT-4
[11] = test system: CAKI-1
[12] = test system: RXF 393
[13] = test system: SF-539
[14] = test system: SK-MEL-5
[15] = test system: NCI-H522
[16] = test system: BT-549
[17] = test system: HT-29
[18] = test system: NCI-H460
[19] = test system: HOP-62
[20] = test system: MDA-MB-231
[21] = test system: MDA-MB-435
[22] = test system: NCI-H23
[23] = test system: UACC-257
[24] = test system: KM12
[25] = test system: 786-0
[26] = test system: ACHN
[27] = test system: SF-268
[28] = test system: SNB-75
[29] = test system: SN12C
[30] = test system: PC-3
[31] = test system: UACC-62
[32] = test system: SW-620
[33] = test system: OVCAR-3
[34] = test system: HCT-116
[35] = test system: SK-MEL-2
[36] = test system: A498
[37] = test system: T47D
[38] = test system: SR
[39] = test system: TK-10
[40] = test system: OVCAR-5
[41] = test system: OVCAR-8
[42] = test system: MCF7
[43] = test system: Malme-3M
[44] = test system: SNB-19
[45] = test system: U-251
[46] = test system: UO-31
[47] = test system: Hs-578T
[48] = test system: CCRF-CEM
[49] = test system: HOP-92
[50] = test system: MDA-N
[51] = test system: HCC 2998
[52] = test system: COLO 205
[53] = test system: NCI/ADR-RES
[54] = test system: M14
[55] = test system: NCI-H226
[56] = test system: RPMI-8226
[57] = test system: HL-60
[58] = test system: LOX IMVI
[59] = test system: EKVX

Compound: COc1ccc(NC(=S)NNC(=O)c2cc(-c3ccccc3)nc3ccccc23)cc1
- GI50 [1]: 26.5 µM (inactive)
- GI50 [2]: 12.3 µM
- GI50 [3]: 19.3 µM (inactive)
- GI50 [4]: 3.5 µM (inactive)
- GI50 [5]: 15.7 µM (inactive)
- GI50 [6]: 0.479 µM (active)
- GI50 [7]: 18.1 µM (inactive)
- GI50 [8]: 10.4 µM (inactive)
- GI50 [9]: 17.7 µM (inactive)
- GI50 [10]: 19.7 µM (inactive)
- GI50 [11]: 23.4 µM (inactive)
- GI50 [12]: 13.9 µM (inactive)
- GI50 [13]: 13.2 µM (inactive)
- GI50 [14]: 11.4 µM (inactive)
- GI50 [15]: 17.1 µM (inactive)
- GI50 [16]: 14.1 µM (inactive)
- GI50 [17]: 19.9 µM (inactive)
- GI50 [18]: 16.1 µM (inactive)
- GI50 [19]: 15.1 µM (inactive)
- GI50 [20]: 22.5 µM (inactive)
- GI50 [21]: 2.95 µM (inactive)
- GI50 [22]: 13.6 µM (inactive)
- GI50 [23]: 18.4 µM (inactive)
- GI50 [24]: 16.1 µM (inactive)
- GI50 [25]: 17.9 µM (inactive)
- GI50 [26]: 22.1 µM (inactive)
- GI50 [27]: 26.1 µM (inactive)
- GI50 [28]: 16.1 µM (inactive)
- GI50 [29]: 18.6 µM (inactive)
- GI50 [30]: 19.2 µM (inactive)
- GI50 [31]: 11.5 µM (inactive)
- GI50 [32]: 14.6 µM (inactive)
- GI50 [33]: 12 µM (inactive)
- GI50 [34]: 12.4 µM (inactive)
- GI50 [35]: 16 µM (inactive)
- GI50 [36]: 14.3 µM (inactive)
- GI50 [37]: 14.9 µM (inactive)
- GI50 [38]: 2.81 µM (inactive)
- GI50 [39]: 15.8 µM (inactive)
- GI50 [40]: 20.8 µM (inactive)
- GI50 [41]: 17.2 µM (inactive)
- GI50 [42]: 0.568 µM (active)
- GI50 [43]: 11.2 µM (inactive)
- GI50 [44]: 23.9 µM (inactive)
- GI50 [45]: 15.5 µM (inactive)
- GI50 [46]: 11.4 µM (inactive)
- GI50 [47]: 24 µM (inactive)
- GI50 [48]: 12.9 µM (inactive)
- GI50 [49]: 10.6 µM (inactive)
- GI50 [50]: 4.03 µM (inactive)
- GI50 [51]: 12.1 µM (inactive)
- GI50 [52]: 31.8 µM (inactive)
- GI50 [53]: 12.3 µM (inactive)
- GI50 [54]: 15.4 µM (inactive)
- GI50 [55]: 20.1 µM (inactive)
- GI50 [56]: 11.4 µM (inactive)

Compound: CCOC(=O)C(SCCO)C(C(=O)OCC)n1cnc2c(=O)[nH]c(NC(C)=O)nc21 (centres undefined)
- GI50 [1]: > 100 µM (inactive)
- GI50 [2]: > 100 µM
- GI50 [3]: > 100 µM (inactive)
- GI50 [4]: > 100 µM (inactive)
- GI50 [5]: > 100 µM (inactive)
- GI50 [6]: > 100 µM (inactive)
- GI50 [7]: > 100 µM (inactive)
- GI50 [8]: > 100 µM (inactive)
- GI50 [9]: > 100 µM (inactive)
- GI50 [10]: > 100 µM (inactive)
- GI50 [11]: > 100 µM (inactive)
- GI50 [13]: > 100 µM (inactive)
- GI50 [57]: > 100 µM (inactive)
- GI50 [14]: > 100 µM (inactive)
- GI50 [15]: > 100 µM (inactive)
- GI50 [16]: > 100 µM (inactive)
- GI50 [17]: > 100 µM (inactive)
- GI50 [18]: > 100 µM (inactive)
- GI50 [19]: > 100 µM (inactive)
- GI50 [20]: > 100 µM (inactive)
- GI50 [21]: > 100 µM (inactive)
- GI50 [22]: > 100 µM (inactive)
- GI50 [23]: > 100 µM (inactive)
- GI50 [24]: > 100 µM (inactive)
- GI50 [25]: > 100 µM (inactive)
- GI50 [26]: > 100 µM (inactive)
- GI50 [27]: > 100 µM (inactive)
- GI50 [28]: > 100 µM (inactive)
- GI50 [29]: > 100 µM (inactive)
- GI50 [30]: > 100 µM (inactive)
- GI50 [31]: > 100 µM (inactive)
- GI50 [32]: > 100 µM (inactive)
- GI50 [33]: > 100 µM (inactive)
- GI50 [34]: > 100 µM (inactive)
- GI50 [35]: > 100 µM (inactive)
- GI50 [36]: > 100 µM (inactive)
- GI50 [37]: > 100 µM (inactive)
- GI50 [38]: 21.4 µM (inactive)
- GI50 [39]: > 100 µM (inactive)
- GI50 [40]: > 100 µM (inactive)
- GI50 [41]: > 100 µM (inactive)
- GI50 [42]: > 100 µM (inactive)
- GI50 [43]: > 100 µM (inactive)
- GI50 [58]: 51.8 µM (inactive)
- GI50 [44]: > 100 µM (inactive)
- GI50 [45]: > 100 µM (inactive)
- GI50 [46]: > 100 µM (inactive)
- GI50 [47]: > 100 µM (inactive)
- GI50 [59]: > 100 µM (inactive)
- GI50 [48]: > 100 µM (inactive)
- GI50 [49]: > 100 µM (inactive)
- GI50 [50]: > 100 µM (inactive)
- GI50 [51]: > 100 µM (inactive)
- GI50 [52]: > 100 µM (inactive)
- GI50 [53]: > 100 µM (inactive)
- GI50 [54]: > 100 µM (inactive)
- GI50 [55]: > 100 µM (inactive)
- GI50 [56]: > 100 µM (inactive)
